Experimental data reported in patent US11478451B1, “Macrocyclic chlorine substituted indole derivatives” (Bayer Aktiengesellschaft, priority 2017, dated 2022).
“And” between values parts separate entries of the source, which are not always exact repeats. Identical values can stand only once. Counter-ions that a name gives are not always drawn. Like-named read-outs stand apart in the source and are kept apart here.

Tests used:
NCI-H23 cells = assay: Antiproliferation assay (CellTiter-Glo, 72 h), NCI-H23; type: cell-based; settings: NCI-H23, 72 h, read-out: Antiproli NCI-H23 [M] median
Description: (§1) Assessment of the Anti-Proliferative Effect of Compounds in Different Cell Lines
(§2) The impact of compounds on the proliferation of different cell lines was assessed using the CellTiter-Glo® Luminescent Cell Viability reagent from Promega (G7573).
(§3) In parallel, cells were plated in a reference (day 0) plate for time zero determination.
(§4) Rim wells were excluded. The cells were incubated for 72 h hours in a humidified incubator at 37° C. The day 0 plate was measured by adding 30 μL/well of CTG solution (CellTiter-Glo® Luminescent Cell Viability reagent, Promega G7573) to time zero wells in the reference plate followed by a 10 minutes incubation and luminescence reading at 0.1 ms. using the PHERAstar FS microplate reader (BMG Labtech).
(§5) After 72 h incubation, the treated plates were measured in the same way as the day 0 plate mentioned above.

SK-BR-3 cells = assay: Antiproliferation assay (CellTiter-Glo, 72 h), SK-BR-3; type: cell-based; settings: IC50, median, SK-BR-3, 72 h, read-out: Antiproli SK-BR-3 [M] median
Description: as §1, §2, §3, §4, §5

DMS-114 cells = assay: Antiproliferation assay (CellTiter-Glo, 72 h), DMS-114; type: cell-based; settings: IC50, median; DMS-114, 72 h; read-out: Antiproli DMS-114 [M] median
How it was run: (§6)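 Cells plated in treatment plates plus a day 0 reference plate; incubated 72 h at 37 °C; CellTiter-Glo added, 10 min incubation, luminescence read; day 0 plate read at time zero.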

SUDHL10 cells [1] = assay: Induction of cytotoxicity (CellTiter-Glo, 5 h), SUDHL10; settings: SUDHL10, 5 h
MV-4-11 cells = assay: Antiproliferation assay (CellTiter-Glo, 72 h), MV-4-11; type: cell-based; settings: IC50, median, MV-4-11, 72 h, read-out: Antiproli MV-4-11 [M] median
Description: as §1, §2, §3, §4, §5

SUDHL10 cells [2] = assay: Induction of caspase-3/7 activity (Caspase-Glo 3/7), SUDHL10; type: cell-based; settings: EC50, median, SUDHL10, 3 h treatment
How it was run: (§7)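 Caspase-3/7 activation serves as the apoptosis read-out for MCL-1 inhibition. Cells are treated with compound for 3 h at 37 °C and assayed with Caspase-Glo 3/7; values are corrected by subtracting medium-only background.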

HMC-1-8 cells = assay: Antiproliferation assay (CellTiter-Glo, 72 h), HMC-1-8; type: cell-based; settings: IC50, median, HMC-1-8, 72 h, read-out: Antiproli HMC-1-8 [M] median
How it was run: as §6

SNU-389 cells = assay: Antiproliferation assay (CellTiter-Glo, 72 h), SNU-389; type: cell-based; settings: IC50, median; SNU-389, 72 h; read-out: Antiproli SNU-389 [M] median
How it was run: as §6

SUDHL5 cells [3] = assay: Induction of caspase-3/7 activity (Caspase-Glo 3/7), SUDHL5; type: cell-based; settings: EC50, median, SUDHL5, 3 h treatment
How it was run: as §7

SUDHL5 cells [4] = assay: Induction of cytotoxicity (CellTiter-Glo, 5 h), SUDHL5; settings: SUDHL5, 5 h
Description: (§10) Therefore, cytotoxicity assays were run in parallel in SUDHL5 and SUDHL10 cells.
(§11) The different cell lines were plated in culture medium (RPMI 1640 [GIBCO #22400-089] supplemented with 10% Fetal Bovine Serum) at a density of 3,300 cells in 30 μL/well in a sterile, solid black, flat bottom, polystyrene, TC-treated 384-well microplate (Corning #3571) using Multidrop Combi Reagent Dispenser. As a control, medium without cells was also added to the plate. Cells were incubated in a humidified incubator at 37° C. overnight. […] Rim wells were excluded. The cells were incubated for 5 h hours in a humidified incubator at 37° C. After this incubation, 30 μL of CellTiter-Glo® Luminescent Cell Viability reagent (Promega, G7573) was added to each well using the Multidrop Combi Reagent Dispenser, followed by 15 min incubation on a shaker at room temperature. Finally, luminescence was read at 0.1 ms, with a gain of 3000 using the PHERAstar FS microplate reader (BMG Labtech).

AMO-1 cells = assay: Antiproliferation assay (CellTiter-Glo, 72 h), AMO-1; type: cell-based; settings: IC50, median, AMO-1, 72 h, read-out: Antiproli AMO-1 [M] median
How it was run: as §6

A2058 cells = assay: Antiproliferation assay (CellTiter-Glo, 72 h), A2058; type: cell-based; settings: A2058, 72 h, read-out: Antiproli A2058 [M] median
Description: as §1, §2, §3, §4, §5

SUDHL5 cells [5] = assay: Antiproliferation assay (CellTiter-Glo, 72 h), SUDHL5; type: cell-based; settings: IC50, median, SUDHL5, 72 h, read-out: Antiproli SUDHL5 [M] (median)
How it was run: as §6

KYSE-180 cells = assay: Antiproliferation assay (CellTiter-Glo, 72 h), KYSE-180; type: cell-based; settings: IC50, median; KYSE-180, 72 h; read-out: Antiproli KYSE-180 [M] median
Description: as §1, §2, §3, §4, §5

T47D cells = assay: Antiproliferation assay (CellTiter-Glo, 72 h), T47D; type: cell-based; settings: IC50, median, T47D (head printed T4713), read-out: Antiproli T4713 [M] median
Description: as §1, §2, §3, §4, §5

SUDHL10 cells [6] = assay: Antiproliferation assay (CellTiter-Glo, 72 h), SUDHL10; type: cell-based; settings: IC50, median; SUDHL10, 72 h; read-out: Antiproli SUDHL10 [M] (median)
Description: as §1, §2, §3, §4, §5

SUDHL10 cells [7] = tested on: SUDHL10 cells
BCL-2 = BCL-2 (Homo sapiens (Human), UniProt P10415); assay: Protein-protein interaction assay BCL-2/Bad BH3 peptide (BCL-2 assay), TR-FRET; type: binding; settings: IC50, median; BCL-2/Bad BH3 TR-FRET
Chain of BCL-2 (P10415 1-211): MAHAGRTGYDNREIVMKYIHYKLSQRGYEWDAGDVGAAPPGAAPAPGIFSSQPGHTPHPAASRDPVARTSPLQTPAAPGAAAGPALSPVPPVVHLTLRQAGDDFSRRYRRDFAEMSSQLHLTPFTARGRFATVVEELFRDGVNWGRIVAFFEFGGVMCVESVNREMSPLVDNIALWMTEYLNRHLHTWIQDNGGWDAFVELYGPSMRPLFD
Description: The dose-dependent inhibition by the compounds described in this invention of the interaction between BCL-2 and the BH3 domain of Bad (both human) was determined using a steady state binding competition assay with time-resolved fluorescence energy transfer (TR-FRET) readout.
For that, 100-fold concentrated DMSO solutions were prepared by serial dilutions (1:3.4) of a 2 mM stock solution in a clear, 384-well microtiter plate (Greiner Bio-One, Frickenhausen, Germany). From there, 50 nl were transferred in a dark test plate (Greiner Bio-One, Frickenhausen, Germany). […] This was followed by a 10-minute incubation step at 22° C. for pre-equilibration of the putative complex between His-BCL-2 and the compounds.
(§8) The mixture was incubated in the dark for one hour at 22° C. and then overnight at 4° C.
(§9) The resulting data (ratio) were normalized, taking 0% inhibition as the mean value of control measurements (usually 32 data points) where all reagents were included. In this case 50 nl DMSO were used instead of compounds. […] IC50 values were determined by regression analysis based on a 4 parameter equation (minimum, maximum, IC50, Hill; Y=Max+(Min−Max)/(1+(X/IC50)^Hill) using the Screener Software (Genedata).

BCL-XL = BCL-XL (Homo sapiens (Human), UniProt Q07817); assay: Protein-protein interaction assay BCL-XL/Bad BH3 peptide (BCL-XL assay), TR-FRET; type: binding; settings: IC50, median
Chain of BCL-XL (Q07817 1-212): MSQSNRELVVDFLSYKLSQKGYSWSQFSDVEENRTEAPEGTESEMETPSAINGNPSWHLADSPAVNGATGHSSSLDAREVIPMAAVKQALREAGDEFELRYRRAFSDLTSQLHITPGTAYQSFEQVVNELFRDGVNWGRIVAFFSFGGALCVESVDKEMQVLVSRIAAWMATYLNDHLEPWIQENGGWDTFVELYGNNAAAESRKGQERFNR
Description: The dose-dependent inhibition by the compounds described in this invention of the interaction between BCL-XL and the BH3 domain of Bad (both human) was determined using a steady state binding competition assay with time-resolved fluorescence energy transfer (TR-FRET) readout.
For that, 100-fold concentrated DMSO solutions were prepared by serial dilutions (1:3.4) of a 2 mM stock solution in a clear, 384-well microtiter plate (Greiner Bio-One, Frickenhausen, Germany). From there, 50 nl were transferred in a dark test plate (Greiner Bio-One, Frickenhausen, Germany). […] This was followed by a 10-minute incubation step at 22° C. for pre-equilibration of the putative complex between His-BCL-XL and the compounds.
as §8, §9

SUDHL5 cells [8] = tested on: SUDHL5 cells
Description: as §10, §11

MCL-1 = MCL-1 (Homo sapiens (Human), UniProt Q07820, K194A/K197A/R201A); assay: Protein-protein interaction assay MCL-1/Noxa BH3 peptide (MCL-1 assay), TR-FRET; type: binding; settings: IC50, median; MCL-1/Noxa BH3 TR-FRET
Chain of MCL-1 (Q07820 whole entry K194A/K197A/R201A, looked up): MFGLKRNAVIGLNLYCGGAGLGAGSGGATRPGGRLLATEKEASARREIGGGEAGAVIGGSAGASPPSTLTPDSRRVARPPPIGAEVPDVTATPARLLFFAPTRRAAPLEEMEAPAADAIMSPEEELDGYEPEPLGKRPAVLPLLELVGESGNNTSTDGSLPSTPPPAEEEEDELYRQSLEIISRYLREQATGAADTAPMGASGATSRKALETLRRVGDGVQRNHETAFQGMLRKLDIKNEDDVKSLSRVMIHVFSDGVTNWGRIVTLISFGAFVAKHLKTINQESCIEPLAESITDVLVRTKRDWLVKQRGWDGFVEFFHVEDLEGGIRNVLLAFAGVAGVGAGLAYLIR

[9] = read-out: Cytotox SUDHL10 [M] (median), IC50, median
[10] = read-out: Cytotox SUDHL5 [M] (median), IC50, median

| Structure (SMILES) | IC50 (SK-BR-3 cells) | IC50 (DMS-114 cells) | IC50 (SUDHL10 cells [1]; [9]) | IC50 (MV-4-11 cells) | EC50 (SUDHL10 cells [2]) | IC50 (HMC-1-8 cells) | IC50 (SNU-389 cells) | EC50 (SUDHL5 cells [3]) | IC50 (SUDHL5 cells [4]; [10]) | IC50 (AMO-1 cells) | IC50 (A2058 cells; IC50, median) | IC50 (SUDHL5 cells [5]) | IC50 (T47D cells) | IC50 (SUDHL10 cells [6]) | other results |
| --- | --- | --- | --- | --- | --- | --- | --- | --- | --- | --- | --- | --- | --- | --- | --- |
| Cc1c2c(nn1C)COCCCCn1c(C(=O)O)c(CCCOc3cccc4ccccc34)c3ccc(Cl)c-2c31 (single isomer, unassigned; enantiomer 1) [Example 26, 4-chloro-2,3-dimethyl-7-[3-(naphthalen-1-yloxy)propyl]-2,10,11,12,13,15-hexahydropyrazolo-[4′,3′:9,10][1,6]oxazacycloundecino[8,7,6-hi]indole-8-carboxylic acid-N-ethylethanamine salt (Enantiomer 1)] | 3.3e-06 M | 1.76e-06 M | 5e-07 M | 1.81e-06 M | 0.41 µM | 2.9e-06 M | 1.66e-06 M | 0.25 µM | 4.6e-07 M | 1e-06 M | 1.49e-05 M | 5.8e-07 M |  |  | IC50 (NCI-H23 cells; IC50, median): 2.32e-06 M |
| Cc1c2c(nn1C)CN(C)CCCCn1c(C(=O)O)c(CCCOc3cccc4ccccc34)c3ccc(Cl)c-2c31 (single isomer, unassigned; enantiomer 1) [Example 12, (+)-4-chloro-2,3,14-trimethyl-7-[3-(naphthalen-1-yloxy)propyl]-10,11,12,13,14,15-hexahydro-2H-pyrazolo[3′,4′:8,9][1,6]diazacycloundecino[10,11,1-hi]indole-8-carboxylic acid-N-ethylethanamine salt (Enantiomer 1)] | 6.67e-07 M | 1.32e-06 M | 1.4e-07 M | 4.41e-07 M |  | 1.6e-06 M | 7.22e-07 M |  |  | 3.3e-07 M | 4.83e-06 M | 1.7e-07 M | 7.1e-06 M | 1.4e-07 M | IC50 (KYSE-180 cells): 3.79e-06 M |
| Cc1c2c(nn1C)COCCCCn1c(C(=O)O)c(CCCOc3cccc4cc(F)ccc34)c3ccc(Cl)c-2c31 (single isomer, unassigned; enantiomer 1) [Example 15, (+)-4-chloro-7-{3-[(6-fluoronaphthalen-1-yl)oxy]propyl}-2,3-dimethyl-2,10,11,12,13,15-hexahydropyrazolo[4′,3′:9,10][1,6]oxazacycloundecino[8,7,6-hi]indole-8-carboxylic acid-N-ethylethanamine salt (Enantiomer 1)] |  | 6.42e-07 M | 2.3e-07 M | 4.61e-07 M | 0.15 µM | 1.4e-06 M | 9.28e-07 M | 0.12 µM | 1.4e-07 M | 5.3e-07 M | 5.86e-06 M | 1.9e-07 M | 1.19e-05 M | 2e-07 M |  |
| CCc1c2c(nn1C)COC/C=C\Cn1c(C(=O)O)c(CCCOc3cccc4ccccc34)c3ccc(Cl)c-2c31 (racemic) [Example 18, (rac)-(11Z)-4-chloro-3-ethyl-2-methyl-7-[3-(naphthalen-1-yloxy)propyl]-2,10,13,15-tetrahydropyrazolo[4′,3′:9,10][1,6]oxazacycloundecino[8,7,6-hi]indole-8-carboxylic acid] |  |  |  | 4.71e-06 M | 1.3 µM |  |  | 1.1 µM |  |  |  | 1.4e-06 M |  |  | IC50 (SUDHL10 cells [7]): 1.3 µM; IC50 (BCL-2): > 20 µM and 19 µM and 20 µM; IC50 (BCL-XL): > 20 µM; IC50 (SUDHL5 cells [8]): 1.2 µM; IC50 (MCL-1): 0.0013 µM |
| Cc1c2c(nn1C)COCCCCn1c(C(=O)O)c(CCCOc3cccc4ccccc34)c3ccc(Cl)c-2c31 (racemic) [Example 25, (rac)-4-chloro-2,3-dimethyl-7-[3-(naphthalen-1-yloxy)propyl]-2,10,11,12,13,15-hexahydropyrazolo[4′,3′:9,10][1,6]oxazacycloundecino[8,7,6-hi]indole-8-carboxylic acid] |  |  |  |  |  |  |  |  |  |  |  |  |  |  | IC50 (NCI-H23 cells; Homo sapiens): 6.01e-06 M; IC50 (SK-BR-3 cells; Homo sapiens): 1.29e-05 M; IC50 (SUDHL10 cells [1]; Homo sapiens, SU-DHL10, 5 h, read-out: Cytotox SUDHL10 [M] (median), IC50, median): 9.3e-07 M; IC50 (MV-4-11 cells; Homo sapiens, MV4-11, 72 h): 2.78e-06 M; EC50 (SUDHL10 cells [2]; Homo sapiens, SU-DHL10, 3 h): 1.2 µM; IC50 (HMC-1-8 cells; 72 h): 6.5e-06 M; EC50 (SUDHL5 cells [3]; Homo sapiens, SU-DHL-5, 3 h): 0.39 µM; IC50 (SUDHL5 cells [4]; Homo sapiens, SU-DHL-5, 5 h, read-out: Cytotox SUDHL5 [M] (median), IC50, median): 5.3e-07 M; IC50 (AMO-1 cells; Homo sapiens, AMO1, 72 h): 1.3e-06 M; IC50 (A2058 cells; Homo sapiens): 2.19e-05 M; IC50 (SUDHL5 cells [5]; Homo sapiens, SU-DHL-5, 72 h): 5.6e-07 M |
